As usually defined, the pKi is −log10 of the Ki, conventionally taken in molar units.

Structures are written as SMILES. pKi: −log10 of the molar value.

The target in the assay is PLK1 (Homo sapiens, UniProt P53350). The assay can be described thus: PLK1 Inhibition Assay I (radioactive-phosphate incorporation). In kind it is biochemical. Conditions: Ki(app); PLK1 Inhibition Assay I or II (table does not say which). The method in brief:
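Ki(app) values came from non-linear regression of initial rates after background subtraction, with phosphopeptide measured by phosphocellulose filter binding and scintillation counting. PLK1 at 2 nM was preincubated with compound (typically from 10 μM, 2-fold dilutions) for 10 min, then run 240 min at 25° C with 350 μM [γ-33P]ATP and 450 μM peptide substrate in HEPES pH 7.5 buffer.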

Chain of PLK1 (P53350 whole entry): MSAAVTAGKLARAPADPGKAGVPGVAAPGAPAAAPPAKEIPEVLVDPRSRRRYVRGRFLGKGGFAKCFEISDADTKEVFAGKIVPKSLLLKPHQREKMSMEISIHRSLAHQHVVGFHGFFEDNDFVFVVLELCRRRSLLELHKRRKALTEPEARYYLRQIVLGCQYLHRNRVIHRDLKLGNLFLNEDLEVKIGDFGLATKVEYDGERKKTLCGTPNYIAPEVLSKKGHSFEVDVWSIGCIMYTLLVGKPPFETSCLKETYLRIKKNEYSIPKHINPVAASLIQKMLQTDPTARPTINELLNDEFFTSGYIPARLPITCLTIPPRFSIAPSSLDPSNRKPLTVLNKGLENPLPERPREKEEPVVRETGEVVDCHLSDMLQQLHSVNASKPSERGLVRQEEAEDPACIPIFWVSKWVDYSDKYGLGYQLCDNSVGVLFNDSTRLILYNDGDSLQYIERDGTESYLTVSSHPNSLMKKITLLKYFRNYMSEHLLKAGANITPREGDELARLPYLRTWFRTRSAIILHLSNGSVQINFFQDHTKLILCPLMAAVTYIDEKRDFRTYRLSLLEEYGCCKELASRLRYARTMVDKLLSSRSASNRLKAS

As for `C[C@H](O)C(=O)N1CCC([C@@H](C)Nc2ncc(C#N)c(-c3c[nH]c4ncc(C(F)(F)F)cc34)n2)CC1` [Compound I-228, 2-((R)-1-(1-((S)-2-hydroxypropanoyl)piperidin-4-yl)ethylamino)-4-(5-(trifluoromethyl)-1H-pyrrolo[2,3-b]pyridin-3-yl)pyrimidine-5-carbonitrile], the negative logarithm of the Ki (pKi) is above 8.52.

As for `CC(C)[C@@H](N)C(=O)N1CCC([C@@H](C)Nc2ncc(C#N)c(-c3c[nH]c4ncc(C(F)(F)F)cc34)n2)CC1` [Compound I-229, 2-((R)-1-(1-((R)-2-amino-3-methylbutanoyl)piperidin-4-yl)ethylamino)-4-(5-(trifluoromethyl)-1H-pyrrolo[2,3-b]pyridin-3-yl)pyrimidine-5-carbonitrile], the pKi is above 8.52. Take `C[C@@H](Nc1ncc(C#N)c(-c2c[nH]c3ncc(C(F)(F)F)cc23)n1)C1CCN(C(=O)[C@H](O)C(F)(F)F)CC1` [Compound I-230, 2-((R)-1-(1-((S)-3,3,3-trifluoro-2-hydroxypropanoyl)piperidin-4-yl)ethylamino)-4-(5-(trifluoromethyl)-1H-pyrrolo[2,3-b]pyridin-3-yl)pyrimidine-5-carbonitrile]: the pKi was above 8.52. On to `CC(=O)C(=O)N1CCC([C@@H](C)Nc2ncc(C#N)c(-c3c[nH]c4ncc(C(F)(F)F)cc34)n2)CC1` [Compound I-231, 2-((R)-1-(1-(2-oxopropanoyl)piperidin-4-yl)ethylamino)-4-(5-(trifluoromethyl)-1H-pyrrolo[2,3-b]pyridin-3-yl)pyrimidine-5-carbonitrile], for which the negative logarithm of the Ki (pKi) is above 8.52. For the molecule `C[C@@H](Nc1ncc(C#N)c(-c2c[nH]c3ncc(C(F)(F)F)cc23)n1)C1CCN(C(=O)CC#N)CC1` [Compound I-233, 2-((R)-1-(1-(2-cyanoacetyl)piperidin-4-yl)ethylamino)-4-(5-(trifluoromethyl)-1H-pyrrolo[2,3-b]pyridin-3-yl)pyrimidine-5-carbonitrile], the negative logarithm of the Ki (pKi) is above 8.52. Next, `CC(Nc1ncc(C#N)c(-c2c[nH]c3ncc(C(F)(F)F)cc23)n1)C1(F)CCN(C(=O)CN)CC1` (stereo not drawn) [Compound I-234, 2-(1-(1-(2-aminoacetyl)-4-fluoropiperidin-4-yl)ethylamino)-4-(5-(trifluoromethyl)-1H-pyrrolo[2,3-b]pyridin-3-yl)pyrimidine-5-carbonitrile]: above 8.52.

In the case of `CC(Nc1ncc(C#N)c(-c2c[nH]c3ncc(C(F)(F)F)cc23)n1)C1CN(C(=O)CN)C1` (stereo not drawn) [Compound I-235, 2-(1-(1-(2-aminoacetyl)azetidin-3-yl)ethylamino)-4-(5-(trifluoromethyl)-1H-pyrrolo[2,3-b]pyridin-3-yl)pyrimidine-5-carbonitrile], the pKi was below 7.40. `C[C@@H](Nc1ncc(C#N)c(-c2c[nH]c3ncc(C(F)(F)F)cc23)n1)C1CCN(C(=O)[C@@H]2CCCN2)CC1` [Compound I-236, 2-((R)-1-(1-((S)-pyrrolidine-2-carbonyl)piperidin-4-yl)ethylamino)-4-(5-(trifluoromethyl)-1H-pyrrolo[2,3-b]pyridin-3-yl)pyrimidine-5-carbonitrile]: the pKi is above 8.52. Regarding `CC(Nc1ncc(C#N)c(-c2c[nH]c3ncc(C(F)(F)F)cc23)n1)C1(F)CCN(C(=O)[C@@H](C)O)CC1` (stereo partly drawn) [Compound I-237, 2-(1-(4-fluoro-1-((R)-2-hydroxypropanoyl)piperidin-4-yl)ethylamino)-4-(5-(trifluoromethyl)-1H-pyrrolo[2,3-b]pyridin-3-yl)pyrimidine-5-carbonitrile], the pKi is above 8.52.

As for `CC(Nc1ncc(C#N)c(-c2c[nH]c3ncc(C(F)(F)F)cc23)n1)C1(F)CCN(CC#N)CC1` (stereo not drawn) [Compound I-238, 2-(1-(1-(cyanomethyl)-4-fluoropiperidin-4-yl)ethylamino)-4-(5-(trifluoromethyl)-1H-pyrrolo[2,3-b]pyridin-3-yl)pyrimidine-5-carbonitrile], the pKi was above 8.52. On to `C[C@@H](Nc1ncc(C#N)c(-c2c[nH]c3ncc(C(F)(F)F)cc23)n1)C1CCN(C(=O)[C@@H](N)CO)CC1` [Compound I-239, 2-((R)-1-(1-((S)-2-amino-3-hydroxypropanoyl)piperidin-4-yl)ethylamino)-4-(5-(trifluoromethyl)-1H-pyrrolo[2,3-b]pyridin-3-yl)pyrimidine-5-carbonitrile], for which the pKi was above 8.52. For `C[C@@H](Nc1ncc(C#N)c(-c2c[nH]c3ncc(C(F)(F)F)cc23)n1)C1CCN(C(=O)[C@H](N)CO)CC1` [Compound I-240, 2-((R)-1-(1-((R)-2-amino-3-hydroxypropanoyl)piperidin-4-yl)ethylamino)-4-(5-(trifluoromethyl)-1H-pyrrolo[2,3-b]pyridin-3-yl)pyrimidine-5-carbonitrile] the value was above 8.52; for `CC(C)C[C@@H](N)C(=O)N1CCC([C@@H](C)Nc2ncc(C#N)c(-c3c[nH]c4ncc(C(F)(F)F)cc34)n2)CC1` [Compound I-241, 2-((R)-1-(1-((R)-2-amino-4-methylpentanoyl)piperidin-4-yl)ethylamino)-4-(5-(trifluoromethyl)-1H-pyrrolo[2,3-b]pyridin-3-yl)pyrimidine-5-carbonitrile], 7.40 to 8.52.

For `C[C@@H](Nc1ncc(C#N)c(-c2c[nH]c3ncc(C(F)(F)F)cc23)n1)C1CCN(C(=O)[C@@H](N)[C@@H](C)O)CC1` [Compound I-242, 2-((R)-1-(1-((2S,3R)-2-amino-3-hydroxybutanoyl)piperidin-4-yl)ethylamino)-4-(5-(trifluoromethyl)-1H-pyrrolo[2,3-b]pyridin-3-yl)pyrimidine-5-carbonitrile], the negative logarithm of the Ki (pKi) was above 8.52.

For the molecule `C[C@H](N)C(=O)N1CCC([C@@H](C)Nc2ncc(C#N)c(-c3c[nH]c4ncc(C(F)(F)F)cc34)n2)CC1` [Compound I-243, 2-((R)-1-(1-((S)-2-aminopropanoyl)piperidin-4-yl)ethylamino)-4-(5-(trifluoromethyl)-1H-pyrrolo[2,3-b]pyridin-3-yl)pyrimidine-5-carbonitrile], the negative-log Ki (pKi) is above 8.52.

Take `C[C@H](N)CC(=O)N1CCC([C@@H](C)Nc2ncc(C#N)c(-c3c[nH]c4ncc(C(F)(F)F)cc34)n2)CC1` [Compound I-244, 2-((R)-1-(1-((S)-3-aminobutanoyl)piperidin-4-yl)ethylamino)-4-(5-(trifluoromethyl)-1H-pyrrolo[2,3-b]pyridin-3-yl)pyrimidine-5-carbonitrile]: the pKi was above 8.52. Regarding `C[C@@H](Nc1ncc(C#N)c(-c2c[nH]c3ncc(C(F)(F)F)cc23)n1)[C@H]1CC[C@@H](N2CCN(C)CC2)CC1` [Compound I-245, 2-((R)-1-((1s,4S)-4-(4-methylpiperazin-1-yl)cyclohexyl)ethylamino)-4-(5-(trifluoromethyl)-1H-pyrrolo[2,3-b]pyridin-3-yl)pyrimidine-5-carbonitrile], the negative-log Ki (pKi) is below 7.40. With `C[C@@H](Nc1ncc(C#N)c(-c2c[nH]c3ncc(C(F)(F)F)cc23)n1)C1CCN(C(=O)[C@@H]2CCC[C@@H]2N)CC1` [Compound I-246, 2-((R)-1-(1-((1R,2S)-2-aminocyclopentanecarbonyl)piperidin-4-yl)ethylamino)-4-(5-(trifluoromethyl)-1H-pyrrolo[2,3-b]pyridin-3-yl)pyrimidine-5-carbonitrile], the pKi was above 8.52.
